Results: patent US20220257774A1, “AROMATIC AMINE AR AHD BET TARGETING PROTEIN DEGRADATION CHIMERA COMPOUND AND USE” (HINOVA PHARMACEUTICALS INC., priority 2019, published 2022)

What follows are compounds tested on LNCaP/AR cells (assay: Inhibition of the proliferation of LNCap/AR cells (CCK-8)). Details: 144 h; LNCaP/AR cells, 6 days culture, CCK-8; read-out: LNCap/AR IC50.
Assay type: cell-based
Description: 1. Biological Assay of the Inhibition on the Proliferation of LNCap/AR Cells
(1) Experimental materials and instruments: LNCaP/AR cell line and 22RV1 cell line (provided by Sichuan Kangcheng Biotechnology Co., Ltd.) Fetal bovine serum FBS (Gibco, Cat. No. 10099-141) 0.01M PBS (Biosharp, Cat. No. 162262) RIPM1640 medium (Hyclone, Cat. No. 308090.01) Penicillin-Streptomycin (Hyclone, Cat. No. SV30010) Cell counting kit-8 (Signalway Antibody, Cat. No. CP002) DMSO (Sigma, Cat. No. D5879) Centrifuge Tube, 15 ml (Excell Bio, Cat. No. CS015-0001) Cell Culture Dish, (Excell Bio, Cat. No. CS016-0128) 96-well cell culture plate (Corning, Cat. No. 3599) Microplate reader (Thermo Multiskan MK3 type)
(2) Experimental Methods:
a. Preparation of Buffer Cell culture medium: RIPM1640 medium, 10% FBS, 1% Pen Strep: PBS buffer: PBS powder was dissolved in 2 L of ultrapure water and sterilized. b. Experimental Procedures 1) LNCaP/AR cells were subcultured in cell culture media, and then the cells in good growth condition were seeded in a 96-well plate at 80 μL/well (1000 cells/well), and cultured overnight in a 37° C., 5% CO2 cell incubator. 2) The drug was prepared into a 10 mM stock solution with dimethyl sulfoxide (DMSO). Prior to use, the stock solution was diluted in a ratio of […] with DMSO, and then diluted at a 3-fold gradient to obtain 9 serial concentrations. Then, each concentration of compound was further diluted in a ratio of 1:200 with the culture medium (to ensure that the DMSO concentration in the culture system was 0.1%), and two wells were set for each concentration. 20 μL of the diluted compound solution was added to the well of the cell culture (with a final concentration of 10 μM, 3.3 μM, 1.1 μM . . . ), and then the plate was gently tapped to thoroughly mix. In addition, the experiment included 3 negative control wells only containing cells and 3 blank control wells only containing culture medium (6 wells were each added with DMSO diluted in a ratio of 1:200 with 20 μL of culture medium). c. Result Detection: 1) After culturing for 6 days, 10 μL of CCK-8 was added to each well, and the plate was further incubated for 1 h in a 37° C., 5% CO2 cell incubator. 2) The absorbance (OD value) was measured at 450 nm with a multifunctional microplate reader. 3) The data was analyzed by the Dose-response-inhibition equation in the software GraphPad Prism5, and the IC50 value was obtained. 2. Biological assay of the inhibition on the proliferation of other drug-resistant prostate cancer cells

IC50 [nM] | Compound
101 to 500 | Cc1ccc(-c2c(C)noc2C)cc1N(CCCCCOCC(=O)N[C@H](C(=O)N1C[C@H](O)C[C@H]1C(=O)N[C@@H](C)c1ccc(-c2scnc2C)cc1)C(C)(C)C)c1ccc(-n2cncn2)cc1 [Compound 91, (2S,4R)-1-((S)-2-(2-((5-((4-(1H-1,2,4-triazol-1-yl)phenyl)(5-(3,5-dimethylisoxazol-4-yl)-2-methylphenyl)amino)pentyl)oxy)acetylamino)-3,3-dimethylbutyryl)-4-hydroxy-N—((S)-1-(4-(4-methylthiazol-5-yl)phenyl)ethyl)-pyrrolidinyl-2-formamide]
501 to 2000 | CCCCCCCCC(CCCCCCCOCC(=O)N[C@H](C(=O)N1C[C@H](OC(C)=O)C[C@H]1C(=O)N[C@@H](C)c1ccc(-c2scnc2C)cc1)C(C)(C)C)N(c1ccc(-n2ccnc2)cc1)c1cc(-c2c(C)noc2C)ccc1C (stereo partly drawn) [Compound 88, (3R,5S)-1-((S)-2-(2-((8-((4-(1H-imidazol-1-yl)phenyl)(5-(3,5-dimethylisoxazol-4-yl)-2-methylphenyl)amino)cetyl)oxy)acetylamino)-3,3-dimethylbutyryl)-5-(((S)-1-(4-(4-methylthiazol-5-yl)phenyl)ethyl)carbamoyl)pyrrolidine-3-yl acetate]
101 to 500 | Cc1ccc(-c2c(C)noc2C)cc1N(CCCCCOCC(=O)N[C@H](C(=O)N1C[C@H](O)C[C@H]1C(=O)N[C@@H](C)c1ccc(-c2scnc2C)cc1)C(C)(C)C)c1ccc(-n2ccnc2C)cc1 [Compound 97, (2S,4R)-1-((S)-2-(2-((5-((5-(3,5-dimethylisoxazol-4-yl)-2-methylphenyl)(4-(2-methyl-1H-imidazol-1-yl)phenyl)amino)pentyl)oxy)acetylamino)-3,3-dimethylbutyryl)-4-hydroxy-N—((S)-1-(4-(4-methylthiazol-5-yl)phenyl)ethyl)-pyrrolidinyl-2-formamide]
501 to 2000 | CC(=O)O[C@@H]1C[C@@H](C(=O)N[C@@H](C)c2ccc(-c3scnc3C)cc2)N(C(=O)[C@@H](NC(=O)COCCCCCN(c2ccc(-n3ccnc3)c(Cl)c2)c2cc(-c3c(C)noc3C)ccc2C)C(C)(C)C)C1 [Compound 11, (3R,5S)-1-((S)-2-(2-((5-((3-chloro-4-(1H-imidazol-1-yl)phenyl)(5-(3,5-dimethylisoxazol-4-yl)-2-methylphenyl)amino)n-pentyl)oxy)acetylamino)-3,3-dimethylbutyryl)-5-(((S)-1-(4-(4-methylthiazol-5-yl)phenyl)ethyl)formylamino)pyrrolidinyl-3-acetate]
101 to 500 | Cc1ccc(-c2c(C)noc2C)cc1N(CCCCCNc1ccc2c(c1)CN(C1CCC(=O)NC1=O)C2=O)c1ccc(-c2c(C)noc2C)cc1 (stereo not drawn) [Compound 33, 3-(5-((5-((5-(3,5-Dimethylisoxazol-4-yl)-2-methylphenyl) (4-(3,5-dimethylisoxazol-4-yl)phenyl)amino)pentyl)amino)-1-oxoisoindolin-2-yl)piperidine-2,6-dione]
501 to 2000 | Cc1ncc(-c2c(C)noc2C)cc1N(CCCCCOCC(=O)N[C@H](C(=O)N1C[C@H](O)C[C@H]1C(=O)N[C@@H](C)c1ccc(-c2scnc2C)cc1)C(C)(C)C)c1ccc(-n2ccnc2)c(Br)c1 [Compound 49, (2S,4R)-1-((S)-2-(2-((5-((3-bromo-4-(1H-imidazol-1-yl)phenyl)(5-(3,5-dimethylisoxazol-4-yl)-2-methylpyridin-3-yl)amino)pentyl)oxy)acetamido)-3,3-dimethylbutyryl)-4-hydroxy-N—((S)-1-(4-(4-methylthiazol-5-yl)phenyl)ethyl)pyrrolidine-2-formamide]
101 to 500 | Cc1ccc(-c2c(C)noc2C)cc1N(CCCC1CCN(CC(=O)N[C@H](C(=O)N2C[C@H](O)C[C@H]2C(=O)N[C@@H](C)c2ccc(-c3scnc3C)cc2)C(C)(C)C)CC1)c1ccc(-n2ccnc2)c(Br)c1 [Compound 141, (2S,4R)-1-((S)-2-(2-(4-(3-((3-bromo-4-(1H-imidazol-1-yl)phenyl)(5-(3,5-dimethylisoxazol-4-yl)-2-methylphenyl)amino)propyl)piperidin-1-yl)acetamido)-3,3-dimethylbutyryl)-4-hydroxy-N—((S)-1-(4-(4-methylthiazol-5-yl)phenyl)ethyl)tetrahydropyrrole-2-amide]
> 2000 | Cc1ccc(-c2c(C)noc2C)cc1N(CCC1CCN(c2cc3c(cc2F)C(=O)N(C2CCC(=O)NC2=O)C3=O)CC1)c1ccc(C2(C#N)CC2)cc1 (stereo not drawn) [Compound 29, 1-(4-((5-(3,5-Dimethylisoxazol-4-yl)-2-methylphenyl)(2-(1-(2-(2,6-dioxopiperidin-3-yl)-6-fluoro-1,3-dioxoisoindolin-5-yl)piperidin-4-yl)ethyl)amino)phenyl)cyclopropane-1-carbonitrile]
501 to 2000 | CC(=O)O[C@@H]1C[C@@H](C(=O)N[C@@H](C)c2ccc(-c3scnc3C)cc2)N(C(=O)[C@@H](NC(=O)COCCCCCN(c2ccc(-n3ccnc3)c(C(F)(F)F)c2)c2cc(-c3c(C)noc3C)ccc2C)C(C)(C)C)C1 [Compound 22, (3R,5S)-1-((S)-2-(2-((5-((4-(1H-imidazol-1-yl)-3-(trifluoromethyl)phenyl)(5-(3,5-dimethylisoxazol-4-yl)2-methylphenyl)amino)pentyl)oxy)acetamido)-3,3-dimethylbutyryl)-5-((S)-1-(4-methylthiazol-5-yl)phenyl)ethyl)carbamoyl)pyrrolidine-3-yl acetate]
501 to 2000 | Cc1ccc(-c2c(C)noc2C)cc1N(CCCCCNc1cc2c(cc1F)C(=O)N(C1CCC(=O)NC1=O)C2=O)c1ccc(C2(C#N)CC2)cc1 (stereo not drawn) [Compound 148, 1-(4-((5-(3,5-Dimethylisoxazol-4-yl)-2-methylphenyl)(5-((2-(2,6-dioxopiperidin-3)-6-fluoro-1,3-dicarbonylisoindolin-5))amino)pentyl)amino)phenylcyclopropanecarbonitrile]
101 to 500 | Cc1ccc(-c2c(C)noc2C)cc1N(CCCCCOCC(=O)N[C@H](C(=O)N1C[C@H](O)C[C@H]1C(=O)N[C@@H](C)c1ccc(-c2scnc2C)cc1)C(C)(C)C)c1ccc(-n2ccnc2)c(Cl)c1 [Compound 12, (2S,4R)-1-((S)-2-(2-((5-((3-chloro-4-(1H-imidazol-1-yl)phenyl)(5-(3,5-dimethylisoxazol-4-yl)-2-methylphenyl)amino)n-pentyl)oxy)acetylamino)-3,3-dimethylbutyryl)-4-hydroxy-N—((S)-1-(4-(4-methylthiazol-5-yl)phenyl)ethyl) pyrrolidinyl-2-formamide]

Same assay, conditions: LNCaP/AR cells, 6 days culture, CCK-8; read-out: LNCap/AR IC50

Compound | IC50 [nM]
COc1ccc(N(CCCCCOCC(=O)N[C@H](C(=O)N2C[C@H](OC(C)=O)C[C@H]2C(=O)N[C@@H](C)c2ccc(-c3scnc3C)cc2)C(C)(C)C)c2cc(-c3c(C)noc3C)ccc2C)cc1 [Compound 56, (3R,5S)-1-((S)-2-(2-((5-((5-(3,5-dimethylisoxazol-4-yl)-2-methylphenyl)(4-methoxyphenyl)amino)pentyl)oxy)acetamido)-3,3-dimethylbutyryl)-5-((S)-1-(4-(4-methylthiazol-5-yl)phenyl)ethyl)carbamoyl)pyrrolidine-3-yl acetate] | 101 to 500
CC(=O)O[C@@H]1C[C@@H](C(=O)N[C@@H](C)c2ccc(-c3scnc3C)cc2)N(C(=O)[C@@H](NC(=O)COCCCCCN(c2ccc(-n3ccnc3)c(Br)c2)c2cc(-c3c(C)noc3C)ccc2C)C(C)(C)C)C1 [Compound 9, (3R,5S)-1-((S)-2-(2-((5-((3-bromo-4-(1H-imidazol-1-yl)phenyl)(5-(3,5-dimethylisoxazol-4-yl)-2-methylphenyl)amino)n-pentyl)oxy)acetylamino)-3,3-dimethylbutyryl)-5-(((S)-1-(4-(4-methylthiazol-5-yl)phenyl)ethyl)formylamino)pyrrolidinyl-3-acetate] | 501 to 2000

Same assay, conditions: LNCaP/AR, 144 h, read-out: LNCap/AR IC50

Compound | IC50 [nM]
CC(=O)O[C@@H]1C[C@@H](C(=O)N[C@@H](C)c2ccc(-c3scnc3C)cc2)N(C(=O)[C@@H](NC(=O)COCCCCCN(c2ccc(C#N)c(Cl)c2)c2cc(-c3c(C)noc3C)ccc2C)C(C)(C)C)C1 [Compound 3] | 101 to 500
Cc1ccc(-c2c(C)noc2C)cc1N(CCCCCN1C(=O)CCC(N2Cc3cc(N)ccc3C2=O)C1=O)c1ccc(C#N)c(Cl)c1 (stereo not drawn) [Compound 59, 4-((5-(3-(5-amino-1-oxoisoindolin-2-yl)-2,6-dioxopiperidin-1-yl)pentyl)(5-(3,5-dimethylisoxazol-4-yl)-2-methylphenyl)amino)-2-chlorobenzonitrile] | 501 to 2000
